Here are results for one compound from US20100240040A1, “METHOD FOR SCREENING FOR SELECTIVE MODULATOR OF THE NF-KB PATHWAY ACTIVATION” (INSTITUT PASTEUR, priority 2007, published 2010).

Each structure is given as a SMILES string. Where a SMILES comes first, the peptide text is derived from it.

Experiment [1] concerns NF-κB pathway. The experiment in a line: NF-κB inhibition assay (β-galactosidase reporter) in 70Z/3-C3 cells. Format: cell-based. The settings on record: pre-B 70Z3 lymphocytes activated with PMA, IL-1 or LPS; similar for the stimuli; read-out: IC50 of inhibition of the NF-kB pathway. The protocol: 4.5×10^5 70Z/3-C3 cells in 450 μl of 10% FCS-RPMI (Invitrogen) were incubated with 0-20 μM peptide BA-DR NLM or BA-NLM. After 2 h at 37° C., 200 μl of cell samples were transferred in duplicate to a 96-well micro titer plate. One well was treated for 4 h with either 15 μg/ml LPS, 20 ng/ml IL1-β or 100 ng/ml PMA. A control well was left untreated. After 4 h at 37° C., cells were centrifuged at 400×g for 5 min at room temperature, the pellets were washed three times with cold PBS (200 μl), and the cells were lysed in 100 μl of lysis buffer (25 mM tris-phosphate buffer at pH7.8 containing 8 mM MgCl2, 1 mM dithioerythreitol, 1% Triton X-100, 15% glycerol and a protease inhibitor mixture (Roche Applied Science, ref. 1836145)). The lysate was centrifuged at 1000×g for 20 min at 4° C., and supernatant was kept on ice before performing the β-galactosidase assay. β-galactosidase assays were performed on 50 μl of the supernatant and in an assay mix containing 4 μl of Galacton-star chemiluminescent substrate and 196 μl of reaction buffer (Clonetech). The activity was measured with a plate luminometer (Berthold).

Experiment [2] deals with T1, Lys63-linked polyubiquitin chains (Homo sapiens, UniProt P0CG47).
T1 construct: the Lys63-linked polyubiquitin chains; purchased Boston Biochem
The experiment in a line: In vitro binding assay by fluorescence polarization to polyubiquitin chains. To be noted: tag-free peptide.

The target in experiment [3] is T2, CC2-LZ interaction with cellular polyubiquitinylated proteins (Mus musculus, UniProt O88522).
T2 construct: made in house; host or cells: chemical synthesis (bait); crude extract of JM4.5.2 cells with or without TNFα (partners)
The experiment is described as follows: Pull-down of polyubiquitinylated proteins from JM4.5.2 extracts with biotinylated CC2-LZ, anti-ubiquitin Western blot. Format: biochemical. To be noted: 20 μM peptide, extracts of TNF-α stimulated JM4.5.2 cells. On the procedure:
24·10^7 JM4.5.2 cells were stimulated or not with 10 ng/ml of TNFα for 10 minutes at 37° C., washed twice with cold PBS and lysed in 900 μl of lysis buffer containing a protease inhibitor mixture as indicated in Example 1.D. Lysates were clarified at 15 000×g at 4° C. for 30 min. 150 μl of proteins were incubated 2 h at 4° C. with 150 μl of streptavidin magnetic beads (MagPrep®, Novagen) pre-incubated 1 h at 4° C. with 10 μg of biotynilated-CC2-LZ and with or without 20 μM of peptides (BA-NLM or BA-DR NLM). Beads were washed 4 times in buffer A (10 mM Hepes pH 7.5, 150 mM NaCl, 8 mM MgCl2, 10% glycerol, 0.1 mM DDM and 1 mM DTE) and resuspended in 30 μl of laemmli buffer containing 6 M Urea. Samples were analysed by Western blotting using anti-ubiquitin antibodies (Sigma) as well as anti-NDPK-B antibodies for loading controls.
Thus, the Inventors examined whether DR NLM impedes the interaction between NEMO and the K63 polyubiquitin chains. To this end, they developed a pull down assay which uses the a peptide comprising the CC2 and the LZ domains of NEMO as a bait to pull down the polyubiquitinylated proteins as described in Example 1.J and depicted in FIG. 7A. […] After extensive washing of beads, all mono and polyubiquitinylated proteins bound to CC2-LZ were analysed by Western blot using anti-ubiquitin antibody (Sigma).

Experiment [4] has as its system NF-κB pathway. The settings on record: reported in WO 2005/027959; cited from earlier work.
The test system of experiment [5] is AP1 pathway. The experiment in a line: AP1-luc reporter assay in Jurkat cells stimulated with PMA and ionomycin. The class given is cell-based, human. The settings on record: 5 μM peptide, T-lymphocytes. The protocol:
Jurkat T cells (clone 20) were transiently transfected by a DEAE-dextran method with a reporter plasmid containing the luciferase under the control of a promoter inducible by the ERK and p38 pathway (SRE-luc; Courtois et al., 1997, Mol. Cell. Biol, 17:1441-1449), the NF-AT pathway or the API pathway (respectively NF-AT-luc and AP1-luc; Northrop et al., 1993, J. Biol. […]., 268:2917-2923). Briefly, cells were washed and resuspended at 10^7 cells/ml in TBS containing 0.5 mg/ml of DEAE-dextran (Pharmacia). 1 μg per 2·10^6 cells of reporter plasmid was added. After 45 min at room temperature, the cells were diluted with 10 volumes of TBS, centrifuged, and resuspended at 10^6 cells/ml in 10% FCS-RPMI. After 24 h, cells were incubated with or without 5 μM NEMO-derived peptides (BA-NLM or BA-DR NLM) for 2 h. They were stimulated or mock-stimulated with 100 ng/ml PMA and 1 μg/ml ionomycin for 5 h, and finally lysed in luciferase buffer (25 mM Tris-phosphate pH 7.8 containing 8 mM MgCl2, 1 mM DTE, 1% Triton X100, 15% glycerol). Luciferase measurement was carried out in a Berthold Luminometer.

For experiment [6], the target named is T3, spCC2-LZ (MOD of NEMO) (Mus musculus, UniProt O88522).
T3 construct: spCC2-LZ, synthetic polypeptide subdomain CC2-LZ; made in house; host or cells: chemical synthesis
The experiment in a line: Fluorescence anisotropy binding of labelled peptide to spCC2-LZ. The settings on record: labelled peptide 10 μM, increasing spCC2-LZ; read-out: dissociation constant for spCC2-LZ. The protocol:
Anisotropy measurements were performed with a QuantaMaster® fluorometer (PTI), equipped with polarizing filters for excitation and emission, and using a photomultiplier tube in the L-configuration. All experiments were carried out in a microcuvette (60 μl) at 22° C., with excitation and emission wavelengths at 495 and 513 nm. The band pass of the excitation and emission wavelengths was 2 and 4 nm, respectively. Steady-state fluorescence anisotropy, expressed as millianisotropy units was measured as described Agou et al., 2004a. All measurements were carried out in a 20 mM isoionic buffer pH 8 (10 mM acetic acide, 10 mM MES, 20 mM Tris), containing 20 mM KCl. Each data point is the result of 20 recording taken over a 2-min period. To analyse whether DR NLM binds the MOD of NEMO, fluorescent labelled BA-DR NLM (10 μM) was incubated with an increasing concentrations of spCC2-LZ and the complex formation was monitored by fluorescence polarization (P) and results are expressed as anisotropy (A) according to the formula A=2P/(3-P). The concentration of spCC2-LZ was determining by amino acid analysis (Vinolo et al; 2006). Data points were fitted to the binding isotherm equation which gives a dissociation constant of 17 μM.

T3 sequence (O88522 253-336): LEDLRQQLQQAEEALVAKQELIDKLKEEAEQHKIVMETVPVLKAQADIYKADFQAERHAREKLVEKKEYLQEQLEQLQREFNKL
T2 sequence (O88522 253-336): as above

On to `CC[C@H](C)[C@H](NC(=O)[C@H](CC(=O)O)NC(=O)[C@H](C)NC(=O)[C@H](CCC(N)=O)NC(=O)[C@H](C)NC(=O)[C@H](CCCCN)NC(=O)[C@H](CC(C)C)NC(C)=O)C(=O)N[C@@H](Cc1ccc(O)cc1)C(=O)N[C@@H](CCCCN)C(=O)N[C@@H](C)C(=O)N[C@@H](CCCNC(=N)N)C(=O)N[C@@H](Cc1ccccc1)C(=O)N[C@@H](CCC(N)=O)C(=O)N[C@@H](C)C(=O)N[C@@H](CCC(=O)O)C(=O)N[C@@H](CCCNC(=N)N)C(=O)N[C@@H](Cc1c[nH]cn1)C(=O)N[C@@H](C)C(=O)N[C@@H](CCCNC(=N)N)C(=O)N[C@@H](CCC(=O)O)C(=O)N[C@@H](CCCCN)C(N)=O` [DR NLM] (Ac-LKAQADIYKARFQAERHAREK-NH2; N-terminus and C-terminus assumed), for which the IC50 in experiment [1] turned out to be 900 nM. In addition, in experiment [2], the “cooperativity index (Hill coefficient) n” value amounted to 1. Besides, the Kd in experiment [2] (read-out: dissociation constant for Lys63-linked polyubiquitin chains) was determined as 250 µM; in experiment [6] it was 17 µM. Also, the “inhibition of CC2-LZ interaction with polyubiquitinylated proteins” value in experiment [3] was “abolishes the CC2-LZ interaction with the cellular polyubiquitinylated proteins”. Besides, the “inhibition of NF-κB activation” value in experiment [4] is listed as “inhibit NF-κB activation”. The “effect on AP1 pathway” value in experiment [5] is listed as “does not abrogate”.
